# Values of other authors in patent US20100331419A1, “Combination Therapies for the Treatment of Obesity” (priority 2009, published 2010).
# Conditions: literature studies of weight loss medications
row,Compound,weight loss of body weight for drug compared with placebo
1,CCN[C@@H](C)Cc1cccc(C(F)(F)F)c1 [dexfenfluramine],about 5%
2,CCCCCCCCCCC[C@@H](C[C@@H]1OC(=O)[C@H]1CCCCCC)OC(=O)[C@H](CC(C)C)NC=O [orlistat],about 5%
3,CC(C)CC(N(C)C)C1(c2ccc(Cl)cc2)CCC1 (stereo not drawn) [sibutramine],about 5%
